Like-named read-outs stand apart in the source and are kept apart here. Peptide text beside a SMILES is read from it.
Tested on: splenocytes from TFA-S100 immunized BALB/c mice
Conditions: for activation of T cells (splenocyte proliferation, 3H thymidine incorporation / proliferation index): 0.1, 0.5 or 1 ug/mL epitope, splenocytes two weeks after TFA-S100 immunization; for recognition by DILI-specific T cells and B cells: summary of mouse splenocyte proliferation and human serum ELISA
Description: FIG. 4. Splenocyte proliferation assays with candidate CYP2E1 epitopes.
As described above, BALB/c mice were immunized with TFA-S100. Splenocytes from BALB/c mice immunized with S100 in CFA plus PT or CFA and PT alone were used as controls. Splenocyte isolation was performed using basic immunological techniques. Briefly, spleens were harvested two weeks after immunization. Spleens were mashed between two frosted glass slides, and tissue debris was removed by filtering the sample through a 70 μm cell strainer. The remaining cells were washed with sterile phosphate buffered saline/2% fetal calf serum (PBS/2% FCS) and centrifuged at 1500 rpm for 10 minutes using a refrigerated desktop centrifuge. Red cells were lysed using ACK lysing buffer. The remaining cells were washed with RPMI-10% HEPES and filtered through a 70 μm cell strainer. The splenocytes were stored in RPMI complete media with 10% FCS (RPMI-10) at a final concentration of 2.5 million cells per 1 mL of media.
For the proliferation assays, 2.5×10^5 splenocytes (100 μl) were added to each well of a 96 well plate with 0.1 μg/mL, 0.5 μg/mL, or 1 μg/mL of a candidate epitope. As controls, media or concanavalin A (Con A) were also tested in the proliferation assays. Plates were incubated for 3 days at 37° C., 5% CO2, 95% air (humidified). Six to 18 hours prior to the 72 hour time point, the splenocytes were pulsed with 1 μCi/well ^3H thymidine (0.25 mCi/0.25 ml stock). Specifically, a 1:10 dilution (0.1 mCi/ml) of the ^3H thymidine stock solution is made by adding 200 μl of ^3H thymidine stock solution to 1800 μl of sterile RPMI. 10 μl (1 μCi) of diluted ^3H thymidine was pipetted into each well. The cells were incubated for […]. After incubation, cells were placed in −20° C. for up to 45 minutes to stop the incorporation of ^3H thymidine into proliferating cells. The splenocytes were analyzed and ^3H incorporation, an indicator of cellular proliferation, was measured.

CC(C)C[C@H](NC(=O)[C@H](CC(C)C)NC(=O)[C@H](CC(C)C)NC(=O)[C@H](Cc1ccccc1)NC(=O)[C@H](C)NC(=O)[C@H](C)NC(=O)[C@H](Cc1c[nH]c2ccccc12)NC(=O)[C@@H](NC(=O)[C@H](CC(C)C)NC(=O)[C@H](CC(C)C)NC(=O)[C@H](C)NC(=O)[C@@H](NC(=O)[C@@H](NC(=O)[C@@H](NC(=O)CNC(=O)[C@H](CC(C)C)NC(=O)[C@H](C)NC(=O)[C@@H](N)CO)C(C)C)[C@@H](C)O)C(C)C)C(C)C)C(=O)O [JHDN1] (H-SALGVTVALLVWAAFLLL-OH)
activation of T cells (splenocyte proliferation, 3H thymidine incorporation / proliferation index): able to activate T cells

CC[C@H](C)[C@H](NC(=O)CN)C(=O)N[C@H](C(=O)N[C@@H](Cc1ccccc1)C(=O)N[C@@H](CC(N)=O)C(=O)N[C@@H](CC(N)=O)C(=O)NCC(=O)N1CCC[C@H]1C(=O)N[C@H](C(=O)N[C@@H](Cc1c[nH]c2ccccc12)C(=O)N[C@@H](CCCCN)C(=O)N[C@@H](CC(=O)O)C(=O)N[C@H](C(=O)N[C@@H](CCCNC(=N)N)C(=O)N[C@@H](CCCNC(=N)N)C(=O)N[C@@H](Cc1ccccc1)C(=O)N[C@@H](CO)C(=O)N[C@@H](CC(C)C)C(=O)N[C@H](C(=O)N[C@H](C(=O)N[C@@H](CC(C)C)C(=O)O)[C@@H](C)O)[C@@H](C)O)[C@@H](C)CC)[C@@H](C)O)[C@@H](C)CC [JHDN5] (H-GIIFNNGPTWKDIRRFSLTTL-OH)
activation of T cells (splenocyte proliferation, 3H thymidine incorporation / proliferation index): able to activate T cells
recognition by DILI-specific T cells and B cells: only candidate epitope that is recognized by DILI-specific T cells
recognition by DILI-specific T cells and B cells (listed as Gly^113-Leu^133): recognized by DILI-specific T cells and B cells
